Measured values as given in article PMC12708883 (Frontiers in Microbiology, 2025).

What was measured:
YhjE [1] = target: T1, YhjE (Escherichia coli, UniProt P37643); test: inhibition of L-[3H]isoleucine uptake into whole cells, […] min; type: cell-based; settings: 50 μM L-[3H]isoleucine, M9 + 0.2% glucose, 37 °C; B2394[pBR-yhjE]; single replicate
T1 sequence (P37643 1-440): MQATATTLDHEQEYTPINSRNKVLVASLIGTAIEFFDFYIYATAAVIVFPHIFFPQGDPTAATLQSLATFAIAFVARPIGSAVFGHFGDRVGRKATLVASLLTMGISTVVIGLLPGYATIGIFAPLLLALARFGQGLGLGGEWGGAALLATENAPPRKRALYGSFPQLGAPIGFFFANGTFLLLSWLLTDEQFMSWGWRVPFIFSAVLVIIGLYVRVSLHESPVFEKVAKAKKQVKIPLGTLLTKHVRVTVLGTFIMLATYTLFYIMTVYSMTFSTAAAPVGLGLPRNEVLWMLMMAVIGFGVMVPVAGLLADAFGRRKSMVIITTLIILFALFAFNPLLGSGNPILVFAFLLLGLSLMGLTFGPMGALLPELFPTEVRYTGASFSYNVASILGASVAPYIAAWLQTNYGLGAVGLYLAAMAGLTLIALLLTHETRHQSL

YhjE [2] = target: YhjE (Escherichia coli, UniProt P37643, T273I); test: radiolabelled uptake into whole cells, […] min; type: cell-based; settings: 50 μM substrate, M9 + 0.2% glucose, 37 °C; B2933 with mutant pBR-yhjE; labelled compound
YhjE [3] = target: YhjE (Escherichia coli, UniProt P37643, T276I); test: radiolabelled uptake into whole cells, […] min; type: cell-based; settings: 50 μM substrate, M9 + 0.2% glucose, 37 °C; B2933 with mutant pBR-yhjE; labelled compound
LIV-I (LivJFGHM) = target: T2, LIV-I (LivJFGHM) (Escherichia coli, UniProt P0AD96); test: radiolabelled uptake into whole cells, […] min; type: cell-based; settings: sole carrier strain, M9 + 0.2% glucose, 37 °C; labelled compound
T2 construct: gene livJ; native chromosomal genes, sole carrier in brnQ yhjE double mutant cells

BrnQ = target: T3, BrnQ (Escherichia coli, UniProt P0AD99); test: radiolabelled uptake into whole cells, […] min; type: cell-based; settings: sole carrier strain, M9 + 0.2% glucose, 37 °C; labelled compound
T3 construct: native chromosomal gene, sole carrier in livKHMGF yhjE double mutant cells

YhjE [4] = target: YhjE (Escherichia coli, UniProt P37643, M359I); test: radiolabelled uptake into whole cells, […] min; type: cell-based; settings: 50 μM substrate, M9 + 0.2% glucose, 37 °C; B2933 with mutant pBR-yhjE; labelled compound
YhjE [5] = target: YhjE (Escherichia coli, UniProt P37643, P55S); test: radiolabelled uptake into whole cells, […] min; type: cell-based; settings: 50 μM substrate, M9 + 0.2% glucose, 37 °C; B2933 with mutant pBR-yhjE; labelled compound
YhjE [6] = target: YhjE (Escherichia coli, UniProt P37643, S271F/V290M); test: radiolabelled uptake into whole cells, […] min; type: cell-based; settings: 50 μM substrate, M9 + 0.2% glucose, 37 °C; B2933 with mutant pBR-yhjE; labelled compound
[7] = substrate: CC(C)[C@H](N)C(=O)O; test: radiolabelled uptake into whole cells; type: cell-based, Escherichia coli; settings: M9 + 0.2% glucose, 37 °C, B2933[pUC-yhjE], proton symport, labelled compound
[8] = substrate: CC[C@H](C)[C@H](N)C(=O)O; test: radiolabelled uptake into whole cells; type: cell-based, Escherichia coli; settings: M9 + 0.2% glucose, 37 °C, B2933[pUC-yhjE], proton symport, labelled compound

Sequence of YhjE (Escherichia coli, UniProt P37643, T276I) (P37643 whole entry T276I): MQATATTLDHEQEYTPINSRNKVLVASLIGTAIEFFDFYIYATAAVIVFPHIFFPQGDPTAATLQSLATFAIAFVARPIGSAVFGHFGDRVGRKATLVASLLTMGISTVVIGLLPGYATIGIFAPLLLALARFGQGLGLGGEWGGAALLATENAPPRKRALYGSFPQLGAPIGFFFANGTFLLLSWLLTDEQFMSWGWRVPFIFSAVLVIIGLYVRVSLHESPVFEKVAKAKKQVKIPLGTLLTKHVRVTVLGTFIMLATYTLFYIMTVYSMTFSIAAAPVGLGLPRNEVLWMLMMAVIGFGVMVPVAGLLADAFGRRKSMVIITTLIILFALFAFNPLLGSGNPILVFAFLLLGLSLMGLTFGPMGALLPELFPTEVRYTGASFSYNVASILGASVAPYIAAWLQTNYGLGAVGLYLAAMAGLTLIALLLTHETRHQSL
Sequence of YhjE (Escherichia coli, UniProt P37643, P55S) (P37643 whole entry P55S): as the sequence (P37643 whole entry T276I) above, with P55S, I276T counted along it
T3 sequence (P0AD99 whole entry): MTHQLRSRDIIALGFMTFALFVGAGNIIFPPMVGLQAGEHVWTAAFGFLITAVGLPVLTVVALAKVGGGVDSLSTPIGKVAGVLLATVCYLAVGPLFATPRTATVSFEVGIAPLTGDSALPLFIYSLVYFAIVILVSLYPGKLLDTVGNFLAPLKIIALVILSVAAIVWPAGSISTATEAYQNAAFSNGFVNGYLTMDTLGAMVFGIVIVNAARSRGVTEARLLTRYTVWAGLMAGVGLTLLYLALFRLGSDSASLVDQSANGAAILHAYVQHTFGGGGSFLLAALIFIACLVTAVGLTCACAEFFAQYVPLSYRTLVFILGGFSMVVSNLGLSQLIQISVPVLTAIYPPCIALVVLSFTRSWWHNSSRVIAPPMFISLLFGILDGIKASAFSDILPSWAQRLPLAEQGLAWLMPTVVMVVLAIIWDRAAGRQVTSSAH
Sequence of YhjE (Escherichia coli, UniProt P37643, S271F/V290M) (P37643 whole entry S271F/V290M): as the sequence (P37643 whole entry T276I) above, with S271F, I276T, V290M counted along it
Sequence of YhjE (Escherichia coli, UniProt P37643, T273I) (P37643 whole entry T273I): as the sequence (P37643 whole entry T276I) above, with T273I, I276T counted along it
Sequence of YhjE (Escherichia coli, UniProt P37643, M359I) (P37643 whole entry M359I): as the sequence (P37643 whole entry T276I) above, with I276T, M359I counted along it
T2 sequence (P0AD96 24-367): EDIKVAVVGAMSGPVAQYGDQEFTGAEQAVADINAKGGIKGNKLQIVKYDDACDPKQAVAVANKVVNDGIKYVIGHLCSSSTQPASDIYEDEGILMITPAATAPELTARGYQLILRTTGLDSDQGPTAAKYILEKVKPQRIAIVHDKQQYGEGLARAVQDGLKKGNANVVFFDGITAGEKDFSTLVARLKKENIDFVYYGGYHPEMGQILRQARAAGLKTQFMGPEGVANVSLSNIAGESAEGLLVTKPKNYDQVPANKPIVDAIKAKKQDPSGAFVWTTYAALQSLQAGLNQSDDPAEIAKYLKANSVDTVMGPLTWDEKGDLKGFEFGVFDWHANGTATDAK
T2 sequence (P0AEX7 whole entry partner): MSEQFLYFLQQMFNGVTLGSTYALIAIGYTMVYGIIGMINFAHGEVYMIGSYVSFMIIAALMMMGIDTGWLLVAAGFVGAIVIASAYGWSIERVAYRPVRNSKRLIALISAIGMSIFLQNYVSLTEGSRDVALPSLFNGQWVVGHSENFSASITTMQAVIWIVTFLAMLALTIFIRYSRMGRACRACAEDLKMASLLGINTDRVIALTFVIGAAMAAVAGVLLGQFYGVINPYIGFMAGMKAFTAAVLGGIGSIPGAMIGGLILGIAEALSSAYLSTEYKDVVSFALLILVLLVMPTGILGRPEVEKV
T2 sequence (P22729 whole entry partner): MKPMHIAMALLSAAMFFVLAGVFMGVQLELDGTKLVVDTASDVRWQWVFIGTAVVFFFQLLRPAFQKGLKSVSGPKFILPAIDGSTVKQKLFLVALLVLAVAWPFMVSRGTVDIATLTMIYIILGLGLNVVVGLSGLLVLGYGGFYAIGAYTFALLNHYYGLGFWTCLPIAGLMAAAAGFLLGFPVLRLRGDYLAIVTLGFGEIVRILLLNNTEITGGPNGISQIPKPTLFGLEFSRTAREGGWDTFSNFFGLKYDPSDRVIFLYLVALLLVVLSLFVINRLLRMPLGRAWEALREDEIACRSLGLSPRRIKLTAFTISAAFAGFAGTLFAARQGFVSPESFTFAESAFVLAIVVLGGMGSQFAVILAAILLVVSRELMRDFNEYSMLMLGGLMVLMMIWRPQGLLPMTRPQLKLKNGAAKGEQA
T2 sequence (P22731 whole entry partner): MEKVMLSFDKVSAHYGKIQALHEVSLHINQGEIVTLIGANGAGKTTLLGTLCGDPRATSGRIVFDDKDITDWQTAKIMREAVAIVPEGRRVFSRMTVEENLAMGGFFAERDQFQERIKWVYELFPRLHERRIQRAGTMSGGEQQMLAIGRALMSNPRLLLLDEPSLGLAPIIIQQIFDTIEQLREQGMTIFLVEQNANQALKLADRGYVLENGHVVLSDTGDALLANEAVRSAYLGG
T2 sequence (P0A9S7 whole entry partner): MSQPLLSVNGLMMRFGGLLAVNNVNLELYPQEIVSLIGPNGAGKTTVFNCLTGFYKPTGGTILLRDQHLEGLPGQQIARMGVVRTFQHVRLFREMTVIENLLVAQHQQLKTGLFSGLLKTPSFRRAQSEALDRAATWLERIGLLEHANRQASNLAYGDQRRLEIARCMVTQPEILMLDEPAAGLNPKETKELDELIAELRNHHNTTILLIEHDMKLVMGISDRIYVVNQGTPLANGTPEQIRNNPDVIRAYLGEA

`N[C@@H](CS)C(=O)O` [L-cysteine] was tested, and the “% inhibition at 30-fold molar excess” value (YhjE [1]) was “L-tyrosine and L-cysteine, which are structurally unrelated to branched-chain amino acids, produced pronounced inhibitory effects”.

For `CC[C@H](C)[C@H](N)C(=O)O` [L-isoleucine], the uptake rate (YhjE [2]) was “L-isoleucine uptake was concomitantly reduced”, the uptake rate (YhjE [3]) was “L-isoleucine uptake was concomitantly reduced” and the uptake rate (LIV-I (LivJFGHM)) was “Comparison of L-isoleucine–specific activity of YhjE, LIV-I, and BrnQ”. For the same molecule, the uptake rate (BrnQ) was “Comparison of L-isoleucine–specific activity of YhjE, LIV-I, and BrnQ”, the uptake rate (YhjE [4]) was “L-isoleucine uptake was concomitantly reduced” and the uptake rate (YhjE [5]) was “L-isoleucine uptake was concomitantly reduced”. The uptake rate (YhjE [6]) was “L-isoleucine uptake was concomitantly reduced”.

For `CC(C)C[C@H](N)C(=O)O` [L-leucine], the uptake rate (YhjE [2]) was “In every case, L-leucine uptake was elevated relative to cells harboring the wild-type pBR-yhjE”, the uptake rate (YhjE [3]) was “The lowest effect was observed for the T276I substitution” and the uptake rate (YhjE [4]) was “YhjE M359I variant exhibited L-leucine transport activity more than twofold higher than the wild type”. The uptake rate (YhjE [5]) was “In every case, L-leucine uptake was elevated relative to cells harboring the wild-type pBR-yhjE” and the uptake rate (YhjE [6]) was “In every case, L-leucine uptake was elevated relative to cells harboring the wild-type pBR-yhjE”.

`N[C@@H](Cc1ccc(O)cc1)C(=O)O` [L-tyrosine] was tested, and the “% inhibition at 30-fold molar excess” value (YhjE [1]) was “L-tyrosine and L-cysteine, which are structurally unrelated to branched-chain amino acids, produced pronounced inhibitory effects”.

With `CC(C)[C@H](N)C(=O)O` [L-valine] the uptake rate (BrnQ) was “Comparison of L-valine–specific activity of YhjE, LIV-I, and BrnQ”.

B1: YhjE (Escherichia coli K-12) (protein)
chain: T1 sequence (P37643 1-440)
B1 gave a Km [7] of 86.7 µM and a Km [8] of 70.5 µM.
